Laboratory results from the supplement of paper PMC10307832.

Columns and labels:
Experiment in all cases: relative viability (nuclei count vs DMSO), 5 days (fraction); higher = more cells survive
[1] = tested on: HCC-366
Summary of the method: (§1)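 After 5 days of treatment, lung cancer cells in 1536-well plates were fixed and stained in a single step (final 0.05% Triton X-100, 1% formaldehyde, 1 ug/ml Hoechst) and their nuclei counted on 4× images. Treatment had been applied by pin tool the day after seeding as one drug alone or as a fixed anchor-drug dose with five library-drug doses (not always all listed) in √10 steps. Relative viability is the nuclei count of treated wells divided by that of vehicle wells, and values are medians of duplicate plates.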

[2] = tested on: NCI-H647
Summary of the method: as §1

[3] = tested on: SK-LU-1
Summary of the method: as §1

[4] = tested on: NCI-H2170
Summary of the method: as §1

[5] = tested on: HCC-827
Summary of the method: as §1

[6] = tested on: NCI-H1734
Summary of the method: as §1

[7] = tested on: NCI-H1355
Summary of the method: as §1

[8] = tested on: EKVX
Summary of the method: as §1

[9] = tested on: NCI-H1437
Summary of the method: as §1

[10] = tested on: NCI-H661
Summary of the method: as §1

[11] = tested on: NCI-H1993
Summary of the method: as §1

[12] = tested on: SK-MES-1
Summary of the method: as §1

[13] = tested on: NCI-H1395
Summary of the method: as §1

[14] = tested on: NCI-H2342
Summary of the method: as §1

[15] = tested on: HARA
Summary of the method: as §1

[16] = tested on: NCI-H522
Summary of the method: as §1

[17] = tested on: LOU-NH91
Summary of the method: as §1

[18] = tested on: NCI-H2087
Summary of the method: as §1

[19] = tested on: NCI-H2405
Summary of the method: as §1

[20] = tested on: BEN
Summary of the method: as §1

[21] = tested on: NCI-H2009
Summary of the method: as §1

O=c1cc(-c2cccc3c2Sc2ccccc2S3)oc(N2CCOCC2)c1 + O=C(CCCCCCC(=O)Nc1ccccc1)NO [Vorinostat] (partner 1 µM)
relative viability ([1]; first compound 0.08 µM): 0.347
relative viability ([1]; first compound 0.253 µM): 0.387
relative viability ([1]; first compound 0.8 µM): 0.297
relative viability ([1]; first compound 2.53 µM): 0.426
relative viability ([1]; first compound 8 µM): 0.42
relative viability ([2]; first compound 0.08 µM): 0.527
relative viability ([2]; first compound 0.253 µM): 0.691
relative viability ([2]; first compound 0.8 µM): 0.766
relative viability ([2]; first compound 2.53 µM): 0.638
relative viability ([2]; first compound 8 µM): 0.782
relative viability ([3]; first compound 0.08 µM): 0.8
relative viability ([3]; first compound 0.253 µM): 0.894
relative viability ([3]; first compound 0.8 µM): 0.877
relative viability ([3]; first compound 2.53 µM): 0.709
relative viability ([3]; first compound 8 µM): 0.705
relative viability ([4]; first compound 0.08 µM): 0.857
relative viability ([4]; first compound 0.253 µM): 0.952
relative viability ([4]; first compound 0.8 µM): 0.92
relative viability ([4]; first compound 2.53 µM): 0.693
relative viability ([4]; first compound 8 µM): 0.932
relative viability ([5]; first compound 0.08 µM): 0.768
relative viability ([5]; first compound 0.253 µM): 0.945
relative viability ([5]; first compound 0.8 µM): 0.77
relative viability ([5]; first compound 2.53 µM): 0.476
relative viability ([5]; first compound 8 µM): 0.923
relative viability ([6]; first compound 0.08 µM): 0.771
relative viability ([6]; first compound 0.253 µM): 0.94
relative viability ([6]; first compound 0.8 µM): 0.824
relative viability ([6]; first compound 8 µM): 0.993
relative viability ([7]; first compound 0.08 µM): 0.628
relative viability ([7]; first compound 0.253 µM): 0.709
relative viability ([7]; first compound 0.8 µM): 0.526
relative viability ([7]; first compound 2.53 µM): 0.654
relative viability ([7]; first compound 8 µM): 0.584
relative viability ([8]; first compound 0.08 µM): 0.862
relative viability ([8]; first compound 0.253 µM): 0.839
relative viability ([8]; first compound 0.8 µM): 0.601
relative viability ([8]; first compound 2.53 µM): 0.675
relative viability ([8]; first compound 8 µM): 0.569
relative viability ([9]; first compound 0.08 µM): 0.857
relative viability ([9]; first compound 0.253 µM): 0.9
relative viability ([9]; first compound 0.8 µM): 0.847
relative viability ([9]; first compound 2.53 µM): 0.761
relative viability ([9]; first compound 8 µM): 0.857
relative viability ([10]; first compound 0.08 µM): 0.801
relative viability ([10]; first compound 0.253 µM): 0.808
relative viability ([10]; first compound 0.8 µM): 0.807
relative viability ([10]; first compound 2.53 µM): 0.734
relative viability ([10]; first compound 8 µM): 0.789
relative viability ([11]; first compound 0.08 µM): 0.723
relative viability ([11]; first compound 0.253 µM): 0.843
relative viability ([11]; first compound 0.8 µM): 0.908
relative viability ([11]; first compound 2.53 µM): 0.755
relative viability ([11]; first compound 8 µM): 0.736
relative viability ([12]; first compound 0.08 µM): 1.15
relative viability ([12]; first compound 0.253 µM): 1.23
relative viability ([12]; first compound 0.8 µM): 1.01
relative viability ([12]; first compound 2.53 µM): 0.975
relative viability ([12]; first compound 8 µM): 0.939
relative viability ([13]; first compound 0.08 µM): 0.636
relative viability ([13]; first compound 0.253 µM): 0.625
relative viability ([13]; first compound 0.8 µM): 0.777
relative viability ([13]; first compound 2.53 µM): 0.669
relative viability ([13]; first compound 8 µM): 0.759
relative viability ([14]; first compound 0.08 µM): 0.752
relative viability ([14]; first compound 0.253 µM): 0.831
relative viability ([14]; first compound 0.8 µM): 0.8
relative viability ([14]; first compound 2.53 µM): 0.691
relative viability ([14]; first compound 8 µM): 0.699
relative viability ([15]; first compound 0.08 µM): 0.538
relative viability ([15]; first compound 0.253 µM): 0.59
relative viability ([15]; first compound 0.8 µM): 0.442
relative viability ([15]; first compound 8 µM): 0.36
relative viability ([16]; first compound 0.08 µM): 0.952
relative viability ([16]; first compound 0.253 µM): 0.909
relative viability ([16]; first compound 0.8 µM): 0.811
relative viability ([16]; first compound 2.53 µM): 0.736
relative viability ([16]; first compound 8 µM): 1
relative viability ([17]; first compound 0.08 µM): 0.91
relative viability ([17]; first compound 0.253 µM): 0.943
relative viability ([17]; first compound 0.8 µM): 0.854
relative viability ([17]; first compound 2.53 µM): 0.745
relative viability ([17]; first compound 8 µM): 0.898
relative viability ([18]; first compound 0.08 µM): 0.862
relative viability ([18]; first compound 0.253 µM): 0.757
relative viability ([18]; first compound 0.8 µM): 1.09
relative viability ([18]; first compound 2.53 µM): 0.727
relative viability ([18]; first compound 8 µM): 0.917
relative viability ([19]; first compound 0.08 µM): 0.925
relative viability ([19]; first compound 0.253 µM): 0.99
relative viability ([19]; first compound 0.8 µM): 1.06
relative viability ([19]; first compound 2.53 µM): 0.842
relative viability ([19]; first compound 8 µM): 0.983
relative viability ([20]; first compound 0.08 µM): 0.521
relative viability ([20]; first compound 0.253 µM): 0.645
relative viability ([20]; first compound 0.8 µM): 0.594
relative viability ([20]; first compound 2.53 µM): 0.59
relative viability ([20]; first compound 8 µM): 0.629
relative viability ([21]; first compound 0.08 µM): 0.761
relative viability ([21]; first compound 0.253 µM): 0.751
relative viability ([21]; first compound 0.8 µM): 0.667
relative viability ([21]; first compound 2.53 µM): 0.684
relative viability ([21]; first compound 8 µM): 0.699
